Assay: Forced degradation test of ezetimibe
Assay type: physicochemical
Settings: for Amount of ezetimibe (%): 2 hours
Method: The main ingredient, ezetimibe was precisely weighed to about 100 mg and put in a 200 mL volumetric flask. Then, about 20 mL of 90% (v/v) acetonitrile (ACN) was added thereto, and then, completely dissolved by performing ultrasonic extraction for about 10 minutes. Next, the resultant mixture was subjected to a forced degradation test according to each condition using control, oxidation, a strong base, strong acid, and heat as described below.
1) Control: About 10 mL of distilled water was added to the mixture, and the mixture was left in an oven at a temperature of about 60° C. for about 2 hours to proceed a reaction, cooled down to room temperature, and 10 mL of distilled water was dropped thereto.
2) Oxidation: About 10 mL of a 0.5% (v/v) hydrogen peroxide solution was added to the mixture, and the mixture was left in an oven at a temperature of about 60° C. for about 2 hours to proceed a reaction, cooled down to room temperature, and 10 mL of distilled water was dropped thereto.
3) Strong base: About 10 mL of 0.1N NaOH was added to the mixture, and the mixture was left in an oven at a temperature of about 60° C. for about 2 hours to proceed a reaction, cooled down to room temperature, and t 10 mL of 0.1N HCl was dropped thereto (neutralization).
4) Strong acid: About 10 mL of 0.1N HCl was added to the mixture, and the mixture was left in an oven at a temperature of about 60° C. for about 2 hours to proceed a reaction, cooled down to room temperature, and about 10 mL of 0.1N NaOH 10 mL was dropped thereto (neutralization).
5) Heat: About 10 mL of distilled water was added to the mixture, and the mixture was left in an oven at a temperature of about 105° C. for about 2 hours to proceed a reaction, cooled down to room temperature, and about 10 mL of distilled water was dropped thereto.
Then, each of the samples obtained from the degradation test was cooled down to room temperature, and an extract solvent (i.e., a mixed solution of about 0.1 ml of 85% phosphate solution and about 1,000 ml of acetonitrile) was added thereto for each condition above, thereby preparing a test liquid in an amount of 200 mL. Then, the test liquid was analyzed by ‘HPLC’ according to General Tests as set forth in the Korean Pharmacopoeia and calculated according to a ‘quantitation testing method’ and an ‘related compound testing method’, and the amounts of ezetimibe and its main degradation products having […] relative retention time (RRT) were calculated as shown in Table 9 below and FIG. 1.
In addition, the amounts of related compounds of each of the test liquids were calculated, and then, analyzed in connection with an RRT for respective test liquids.

O=C1[C@H](CC[C@H](O)c2ccc(F)cc2)[C@@H](c2ccc(O)cc2)N1c1ccc(F)cc1 [ezetimibe]
Total % of related compounds in test liquid (Control): 0.63% | related compound at relative retention time 0.15 (Control): − (Less than 0.05%) | related compound at relative retention time 0.18 (Control): ++ (0.10% or greater and less than 0.20%) | related compound at relative retention time 0.26 (Control): − (Less than 0.05%) | related compound at relative retention time 0.47 (Control): +++ (0.20% or greater and less than 0.50%) | related compound at relative retention time 0.54 (Control): − (Less than 0.05%) | related compound at relative retention time 0.64 (Control): − (Less than 0.05%) | related compound at relative retention time 0.67 (Control): − (Less than 0.05%) | related compound at relative retention time 0.74 (Control): − (Less than 0.05%) | related compound at relative retention time 1.11 (Control): − (Less than 0.05%) | related compound at relative retention time 1.18 (Control): − (Less than 0.05%) | related compound at relative retention time 1.37 (Control): ++ (0.10% or greater and less than 0.20%) | Amount of ezetimibe (%) (Control: distilled water, 60° C.): 57.90% | Total % of related compounds in test liquid (Heat): 1.97% | related compound at relative retention time 0.15 (Heat): − (Less than 0.05%) | related compound at relative retention time 0.18 (Heat): ++ (0.10% or greater and less than 0.20%) | related compound at relative retention time 0.26 (Heat): − (Less than 0.05%) | related compound at relative retention time 0.47 (Heat): ++++ (0.50% or greater and less than 1.0%) | related compound at relative retention time 0.54 (Heat): − (Less than 0.05%) | related compound at relative retention time 0.64 (Heat): − (Less than 0.05%) | related compound at relative retention time 0.67 (Heat): − (Less than 0.05%) | related compound at relative retention time 0.74 (Heat): − (Less than 0.05%) | related compound at relative retention time 1.11 (Heat): − (Less than 0.05%) | related compound at relative retention time 1.18 (Heat): + (0.05% or greater and less than 0.10%) | related compound at relative retention time 1.37 (Heat): ++++ (0.50% or greater and less than 1.0%) | Amount of ezetimibe (%) (Heat: distilled water, 105° C.): 0.21% | Total % of related compounds in test liquid (Oxidation): 0.61% | related compound at relative retention time 0.15 (Oxidation): − (Less than 0.05%) | related compound at relative retention time 0.18 (Oxidation): ++ (0.10% or greater and less than 0.20%) | related compound at relative retention time 0.26 (Oxidation): − (Less than 0.05%) | related compound at relative retention time 0.47 (Oxidation): +++ (0.20% or greater and less than 0.50%) | related compound at relative retention time 0.54 (Oxidation): − (Less than 0.05%) | related compound at relative retention time 0.64 (Oxidation): − (Less than 0.05%) | related compound at relative retention time 0.67 (Oxidation): − (Less than 0.05%) | related compound at relative retention time 0.74 (Oxidation): − (Less than 0.05%) | related compound at relative retention time 1.11 (Oxidation): − (Less than 0.05%) | related compound at relative retention time 1.18 (Oxidation): − (Less than 0.05%) | related compound at relative retention time 1.37 (Oxidation): ++ (0.10% or greater and less than 0.20%) | Amount of ezetimibe (%) (Oxidation: 0.5% hydrogen peroxide, 60° C.): 61.06% | Total % of related compounds in test liquid (Strong acid): 0.45% | related compound at relative retention time 0.15 (Strong acid): + (0.05% or greater and less than 0.10%) | related compound at relative retention time 0.18 (Strong acid): ++ (0.10% or greater and less than 0.20%) | related compound at relative retention time 0.26 (Strong acid): ++ (0.10% or greater and less than 0.20%) | related compound at relative retention time 0.47 (Strong acid): − (Less than 0.05%) | related compound at relative retention time 0.54 (Strong acid): − (Less than 0.05%) | related compound at relative retention time 0.64 (Strong acid): − (Less than 0.05%) | related compound at relative retention time 0.67 (Strong acid): − (Less than 0.05%) | related compound at relative retention time 0.74 (Strong acid): − (Less than 0.05%) | related compound at relative retention time 1.11 (Strong acid): − (Less than 0.05%) | related compound at relative retention time 1.18 (Strong acid): − (Less than 0.05%) | related compound at relative retention time 1.37 (Strong acid): − (Less than 0.05%) | Amount of ezetimibe (%) (Strong acid: 0.1N HCl, 60° C.): 100.31% | Total % of related compounds in test liquid (Strong base): 21.48% | related compound at relative retention time 0.15 (Strong base): + (0.05% or greater and less than 0.10%) | related compound at relative retention time 0.18 (Strong base): +++++ (1.0% or greater) | related compound at relative retention time 0.26 (Strong base): + (0.05% or greater and less than 0.10%) | related compound at relative retention time 0.47 (Strong base): +++ (0.20% or greater and less than 0.50%) | related compound at relative retention time 0.54 (Strong base): +++++ (1.0% or greater) | related compound at relative retention time 0.64 (Strong base): +++ (0.20% or greater and less than 0.50%) | related compound at relative retention time 0.67 (Strong base): ++ (0.10% or greater and less than 0.20%) | related compound at relative retention time 0.74 (Strong base): + (0.05% or greater and less than 0.10%) | related compound at relative retention time 1.11 (Strong base): + (0.05% or greater and less than 0.10%) | related compound at relative retention time 1.18 (Strong base): ++ (0.10% or greater and less than 0.20%) | related compound at relative retention time 1.37 (Strong base): +++++ (1.0% or greater) | Amount of ezetimibe (%) (Strong base: 0.1N NaOH, 60° C.): 1.56% | stability of ezetimibe (in words) (in a basic environment): unstable | stability of ezetimibe (in words) (under an acidic condition): stable

Source: patent publication US10434067B2, “Composite formulation for oral administration comprising ezetimibe and rosuvastatin” (HANMI PHARM. CO., LTD., priority 2013, dated 2019)
